# Data as given in patent publication US5840697A, “Peptide inhibitors of calmodulin” (Torrey Pines Institute for Molecular Studies, priority 1996, dated 1998).
# pIC50: −log10 of the molar value. Square brackets hold non-standard residues; d marks the D form. Peptide text beside a SMILES is read from it.
# Target: calmodulin (Homo sapiens, UniProt P0DP23)
# Assay: calcium-dependent phosphodiesterase assay (calmodulin activity)
# Type: biochemical
# Details: 50 μM peptide; PDE without calmodulin = 100%, calmodulin without peptide = 0%
# Description: In the calcium dependent phosphodiesterase assay, calmodulin can be assayed by its ability to stimulate phosphodiesterase activity as determined by a two-step assay procedure illustrated by reactions (1) and (2) below. [drawing 1]
# During the first step of the assay cyclic adenosine 3'5'-monophosphate (cAMP) is incubated with calcium-activated phosphodiesterase (Cal-PDE), which hydrolyses the 3'bond producing adenosine 5'-monophosphate (5'-AMP). During the second step, 5'-AMP is quantitatively converted into adenosine and inorganic phosphate (Pi) through the action of a 5-nucleotidase. The reaction is followed by the measurement of the Pi formed by reading the absorbance at 660 nm after reacting with ammonium molybdate. The amount of Pi formed is directly related to the phosphodiesterase activity which depends on the level of activation by calmodulin.
# To sample assay tubes were added the following components: assay buffer, 25 ul; CaCl2, 5 ul; 5'-nucleotidase, 7.5 ul (stock solution is 10 units/ml); calmodulin 5 units; calmodulin inhibitor peptides to obtain the desired final concentration of 50 μM. The volume was then made up to 200 ul with water. Control blanks were prepared replacing the peptides with water. The added components were thoroughly mixed and the tubes incubated at 30° C. for 10 min. […] The samples were centrifuged to remove the protein precipitate and the 50 ul of the supernatant was withdrawn for phosphate measurement. […] The absorbance of the solution were read at 660 nm using water as a blank, identified as control "Calmo."
# The two controls used in the assay, one without and one with calmodulin, as indicated in FIG. 1 and Table I were as follows,: (1) PDE:
# These three controls were used in the calcium-dependent phosphodiesterase assay for reproducibility of the assay.
# In addition to the calcium-dependent phosphodiesterase assay data, IC50 values were determined for many of the peptides. The assay carried out for the determination in the IC50 values differed from the above screening assay by the concentration of the peptides being tested.
# (3) TFP: trifluoperazine; and (4) Calmidasolium: (1-[bis-(4-chlorophenyl)methyl]-3[-2-(2,4-dichlorophenyl)-2[(2,4-dichlorophenyl)methoxy]-ethyl]-1H-imidazolium chloride. The IC50 values were calculated using sigmoidal curve software (Graphpad, ISI; San Diego, Calif.) using the % inhibition at different mixture concentrations (see protocol for determination of % inhibition).
# The (L)-amino acid counterpart for five (5) of the all (D)-amino acid peptides identified from the PS-SCL were synthesized in order to study the stereoselectivity of the inhibition.
row,inhibition at 50 µM [%],Compound
1,79,CC[C@@H](C)[C@@H](NC(=O)[C@@H](Cc1c[nH]c2ccccc12)NC(=O)[C@@H](CC(C)C)NC(C)=O)C(=O)N[C@H](Cc1c[nH]cn1)C(=O)N[C@H](Cc1c[nH]cn1)C(=O)N[C@H](CCCNC(=N)N)C(N)=O [Ac-(D)Leu-(D)Trp-(D)Ile-(D)His-(D)His-(D)Arg-NH2] (Ac-[dL][dW][dI][dH][dH][dR]-NH2)

# Same assay, conditions: (L)-amino acid peptides of Table II
row,"calmodulin inhibitory activity, in words",Compound
1,especially high activity,CC(=O)N[C@@H](CC(C)C)C(=O)N[C@@H](Cc1c[nH]c2ccccc12)C(=O)N[C@@H](CCCNC(=N)N)C(=O)N[C@@H](Cc1c[nH]cn1)C(=O)N[C@@H](Cc1c[nH]cn1)C(=O)N[C@@H](Cc1c[nH]c2ccccc12)C(N)=O [Ac-Leu-Trp-Arg-His-His-Trp-NH2] (Ac-LWRHHW-NH2)

# Same assay, conditions: Table I; assayed at 75, 50 and 12.5 μM, average of repeated assays; read-out: Average IC50
row,pIC50,Compound
1,4.70,CC[C@@H](C)[C@@H](NC(=O)[C@@H](Cc1c[nH]c2ccccc12)NC(=O)[C@@H](CC(C)C)NC(C)=O)C(=O)N[C@H](Cc1c[nH]cn1)C(=O)N[C@H](Cc1c[nH]cn1)C(=O)N[C@H](CCCNC(=N)N)C(N)=O [Ac-(D)Leu-(D)Trp-(D)Ile-(D)His-(D)His-(D)Arg-NH2] (Ac-[dL][dW][dI][dH][dH][dR]-NH2)
2,4.72,CC[C@@H](C)[C@@H](NC(=O)[C@@H](CCCNC(=N)N)NC(=O)[C@@H](CCC(N)=O)NC(=O)[C@@H](CC(C)C)NC(C)=O)C(=O)N[C@H](Cc1c[nH]cn1)C(=O)N[C@H](Cc1c[nH]c2ccccc12)C(N)=O [Ac-(D)Leu-(D)Gln-(D)Arg-(D)Ile-(D)His-(D)Trp-NH2] (Ac-[dL][dQ][dR][dI][dH][dW]-NH2)
3,5.12,CC[C@@H](C)[C@@H](NC(=O)[C@@H](CCCNC(=N)N)NC(=O)[C@@H](Cc1c[nH]c2ccccc12)NC(=O)[C@@H](CC(C)C)NC(C)=O)C(=O)N[C@H](Cc1c[nH]cn1)C(=O)N[C@H](CCCNC(=N)N)C(N)=O [Ac-(D)Leu-(D)Trp-(D)Arg-(D)Ile-(D)His-(D)Arg-NH2] (Ac-[dL][dW][dR][dI][dH][dR]-NH2)
4,4.59,CC[C@@H](C)[C@@H](NC(=O)[C@@H](CCCNC(=N)N)NC(=O)[C@@H](CCC(N)=O)NC(=O)[C@@H](CC(C)C)NC(C)=O)C(=O)N[C@H](Cc1c[nH]cn1)C(=O)N[C@H](CCCNC(=N)N)C(N)=O [Ac-(D)Leu-(D)Gln-(D)Arg-(D)Ile-(D)His-(D)Arg-NH2] (Ac-[dL][dQ][dR][dI][dH][dR]-NH2)
5,5.11,CC[C@@H](C)[C@@H](NC(=O)[C@@H](Cc1c[nH]c2ccccc12)NC(=O)[C@@H](CC(C)C)NC(C)=O)C(=O)N[C@H](Cc1c[nH]cn1)C(=O)N[C@H](CC(C)C)C(=O)N[C@H](CCCNC(=N)N)C(N)=O [Ac-(D)Leu-(D)Trp-(D)Ile-(D)His-(D)Leu-(D)Arg-NH2] (Ac-[dL][dW][dI][dH][dL][dR]-NH2)
6,4.80,CC(=O)N[C@H](CC(C)C)C(=O)N[C@H](Cc1c[nH]c2ccccc12)C(=O)N[C@H](CCCNC(=N)N)C(=O)N[C@H](Cc1c[nH]cn1)C(=O)N[C@H](CC(C)C)C(=O)N[C@H](CCCNC(=N)N)C(N)=O [Ac-(D)Leu-(D)Trp-(D)Arg-(D)His-(D)Leu-(D)Arg-NH2] (Ac-[dL][dW][dR][dH][dL][dR]-NH2)
7,5.29,CC[C@@H](C)[C@@H](NC(=O)[C@@H](Cc1c[nH]c2ccccc12)NC(=O)[C@@H](CC(C)C)NC(C)=O)C(=O)N[C@@H](C(=O)N[C@H](Cc1c[nH]cn1)C(=O)N[C@H](CCCNC(=N)N)C(N)=O)[C@H](C)CC [Ac-(D)Leu-(D)Trp-(D)Ile-(D)Ile-(D)His-(D)Arg-NH2] (Ac-[dL][dW][dI][dI][dH][dR]-NH2)
8,5.09,CC(=O)N[C@H](CC(C)C)C(=O)N[C@H](Cc1c[nH]c2ccccc12)C(=O)N[C@H](CCCNC(=N)N)C(=O)N[C@H](Cc1c[nH]cn1)C(=O)N[C@H](Cc1c[nH]cn1)C(=O)N[C@H](CCCNC(=N)N)C(N)=O [Ac-(D)Leu-(D)Trp-(D)Arg-(D)His-(D)His-(D)Arg-NH2] (Ac-[dL][dW][dR][dH][dH][dR]-NH2)

# More lines, now with the values behind:
row,Compound,pIC50
1,"Clc1ccc(C(c2ccc(Cl)cc2)n2cc[n+](CC(OCc3ccc(Cl)cc3Cl)c3ccc(Cl)cc3Cl)c2)cc1 (stereo not drawn) [Calmidazolium, (1-[bis-(4-chlorophenyl)methyl]-3[-2-(2,4-dichlorophenyl)-2[(2,4-dichlorophenyl)methoxy]-ethyl]-1H-imidazolium chloride, reference compound]",5.05
2,CC(=O)N[C@H](CC(C)C)C(=O)N[C@H](CCC(N)=O)C(=O)N[C@H](CCCNC(=N)N)C(=O)N[C@H](Cc1c[nH]cn1)C(=O)N[C@H](CC(C)C)C(=O)N[C@H](CCCNC(=N)N)C(N)=O [Ac-(D)Leu-(D)Gln-(D)Arg-(D)His-(D)Leu-(D)Arg-NH2] (Ac-[dL][dQ][dR][dH][dL][dR]-NH2),4.60
3,CC[C@@H](C)[C@@H](NC(=O)[C@@H](CCC(N)=O)NC(=O)[C@@H](CC(C)C)NC(C)=O)C(=O)N[C@H](Cc1c[nH]cn1)C(=O)N[C@H](CC(C)C)C(=O)N[C@H](Cc1c[nH]c2ccccc12)C(N)=O [Ac-(D)Leu-(D)Gln-(D)Ile-(D)His-(D)Leu-(D)Trp-NH2] (Ac-[dL][dQ][dI][dH][dL][dW]-NH2),4.52
4,CC(=O)N[C@H](CC(C)C)C(=O)N[C@H](CCC(N)=O)C(=O)N[C@H](CCCNC(=N)N)C(=O)N[C@H](Cc1c[nH]cn1)C(=O)N[C@H](Cc1c[nH]cn1)C(=O)N[C@H](Cc1c[nH]c2ccccc12)C(N)=O [Ac-(D)Leu-(D)Gln-(D)Arg-(D)His-(D)His-(D)Trp-NH2] (Ac-[dL][dQ][dR][dH][dH][dW]-NH2),4.60
5,CC[C@@H](C)[C@@H](NC(=O)[C@@H](CCC(N)=O)NC(=O)[C@@H](CC(C)C)NC(C)=O)C(=O)N[C@@H](C(=O)N[C@H](CC(C)C)C(=O)N[C@H](CCCNC(=N)N)C(N)=O)[C@H](C)CC [Ac-(D)Leu-(D)Gln-(D)Ile-(D)Ile-(D)Leu-(D)Arg-NH2] (Ac-[dL][dQ][dI][dI][dL][dR]-NH2),4.70
6,CC[C@@H](C)[C@@H](NC(=O)[C@@H](CCCNC(=N)N)NC(=O)[C@@H](CCC(N)=O)NC(=O)[C@@H](CC(C)C)NC(C)=O)C(=O)N[C@H](CC(C)C)C(=O)N[C@H](Cc1c[nH]c2ccccc12)C(N)=O [Ac-(D)Leu-(D)Gln-(D)Arg-(D)Ile-(D)Leu-(D)Trp-NH2] (Ac-[dL][dQ][dR][dI][dL][dW]-NH2),4.62
7,CC[C@@H](C)[C@@H](NC(=O)[C@@H](Cc1c[nH]c2ccccc12)NC(=O)[C@@H](CC(C)C)NC(C)=O)C(=O)N[C@@H](C(=O)N[C@H](Cc1c[nH]cn1)C(=O)N[C@H](Cc1c[nH]c2ccccc12)C(N)=O)[C@H](C)CC [Ac-(D)Leu-(D)Trp-(D)Ile-(D)Ile-(D)His-(D)Trp-NH2] (Ac-[dL][dW][dI][dI][dH][dW]-NH2),5.07
8,CC[C@@H](C)[C@@H](NC(=O)[C@@H](CCCNC(=N)N)NC(=O)[C@@H](CCC(N)=O)NC(=O)[C@@H](CC(C)C)NC(C)=O)C(=O)N[C@H](CC(C)C)C(=O)N[C@H](CCCNC(=N)N)C(N)=O [Ac-(D)Leu-(D)Gln-(D)Arg-(D)Ile-(D)Leu-(D)Arg-NH2] (Ac-[dL][dQ][dR][dI][dL][dR]-NH2),4.46
9,CC[C@@H](C)[C@@H](NC(=O)[C@@H](CCC(N)=O)NC(=O)[C@@H](CC(C)C)NC(C)=O)C(=O)N[C@H](Cc1c[nH]cn1)C(=O)N[C@H](Cc1c[nH]cn1)C(=O)N[C@H](Cc1c[nH]c2ccccc12)C(N)=O [Ac-(D)Leu-(D)Gln-(D)Ile-(D)His-(D)His-(D)Trp-NH2] (Ac-[dL][dQ][dI][dH][dH][dW]-NH2),4.57
10,CC[C@@H](C)[C@@H](NC(=O)[C@@H](CCC(N)=O)NC(=O)[C@@H](CC(C)C)NC(C)=O)C(=O)N[C@@H](C(=O)N[C@H](Cc1c[nH]cn1)C(=O)N[C@H](CCCNC(=N)N)C(N)=O)[C@H](C)CC [Ac-(D)Leu-(D)Gln-(D)Ile-(D)Ile-(D)His-(D)Arg-NH2] (Ac-[dL][dQ][dI][dI][dH][dR]-NH2),4.46
11,CC[C@@H](C)[C@@H](NC(=O)[C@@H](CCC(N)=O)NC(=O)[C@@H](CC(C)C)NC(C)=O)C(=O)N[C@@H](C(=O)N[C@H](Cc1c[nH]cn1)C(=O)N[C@H](Cc1c[nH]c2ccccc12)C(N)=O)[C@H](C)CC [Ac-(D)Leu-(D)Gln-(D)Ile-(D)Ile-(D)His-(D)Trp-NH2] (Ac-[dL][dQ][dI][dI][dH][dW]-NH2),4.77
12,CC[C@@H](C)[C@@H](NC(=O)[C@@H](Cc1c[nH]c2ccccc12)NC(=O)[C@@H](CC(C)C)NC(C)=O)C(=O)N[C@@H](C(=O)N[C@H](CC(C)C)C(=O)N[C@H](CCCNC(=N)N)C(N)=O)[C@H](C)CC [Ac-(D)Leu-(D)Trp-(D)Ile-(D)Ile-(D)Leu-(D)Arg-NH2] (Ac-[dL][dW][dI][dI][dL][dR]-NH2),5.14

# Same assay, conditions: Table II; (L)-amino acid peptides, concentrations 0.2 to 50.0 μM; read-out: IC50
row,pIC50,Compound
1,5.94,CC(=O)N[C@@H](CC(C)C)C(=O)N[C@@H](Cc1c[nH]c2ccccc12)C(=O)N[C@@H](CCCNC(=N)N)C(=O)N[C@@H](Cc1c[nH]cn1)C(=O)N[C@@H](Cc1c[nH]cn1)C(=O)N[C@@H](Cc1c[nH]c2ccccc12)C(N)=O [Ac-Leu-Trp-Arg-His-His-Trp-NH2] (Ac-LWRHHW-NH2)
2,4.06,CC[C@H](C)[C@H](NC(=O)[C@H](CCC(N)=O)NC(=O)[C@H](CC(C)C)NC(C)=O)C(=O)N[C@@H](Cc1c[nH]cn1)C(=O)N[C@@H](CC(C)C)C(=O)N[C@@H](CCCNC(=N)N)C(N)=O [Ac-Leu-Gln-Ile-His-Leu-Arg-NH2] (Ac-LQIHLR-NH2)
